Measurements: patent publication US11746102B2, “Polymorphs of selinexor” (Karyopharm Therapeutics Inc., priority 2014, dated 2023)

Experiments:
Format in all cases: physicochemical
[1] = Particle size analysis (Malvern MS2000, volume-based); details: for d10: 10% of total particle volume no larger than this size, 0.1% lecithin in Isopar G dispersant; for d50: 50% of total particle volume no larger than this size; for d50 / d90 / D[4,3] Volume weighted mean: lecithin in Isopar G dispersant; for d90: 90% of total particle volume no larger than this size; for D[4,3] Volume weighted mean: in µm; for Characteristic of the particle size distribution: overlay of particle size distributions
From the text: Particle size data was acquired using a Malvern Instruments MS2000 equipped with a Hydro2000 μP dispersion unit. Data was collected and analyzed using Mastersizer 2000 v 5.60 software, using volume-based measurements. NIST-traceable glass beads were used as the reference standard.
Details of the method conditions used to analyze particle size are listed below: • Sample refractive index: 1.596 • Sample absorption: 0.001 • Dispersant: 0.100 (w/v) Lecithin in Isopar G • Dispersant refractive index: 1.42 • Pump speed: 2100 rpm • Recirculation time: 2 minutes • Sample measurement time: 30 sec. • Background measurement time: 30 sec. • Model: general purpose • Sensitivity: normal • Particle shape: irregular.
One particle size measurement of each lot of selinexor described in Examples 1-6 was collected using the particle size method conditions described above. Table 4 provides sample information and particle size analysis data for the indicated lot of selinexor under the particle size method analysis conditions described above. FIGS. 5A-5P are particle size distribution graphs and show the particle size distribution of the sample corresponding to the indicated lot of selinexor under the particle size method analysis conditions described above.

[2] = Solubility assessment (visual) of selinexor in solvents and solvent mixtures; details: for Solubility: starting Form A
[3] = Stability of Form A on exposure to humidity/temperature
Description: A comprehensive polymorphism assessment of selinexor was performed in a range of different solvents, solvent mixtures and under a number of experimental conditions based on the solubility of selinexor. Three anhydrous polymorphs of selinexor were observed by XRPD investigation, designated Form A, Form B and Form C.

[4] = Competitive slurry experiment (Form A, Form C, seed of Form B); details: about 1:1 Form A and Form C with Form B seed; matured at 5, 25, 50° C. in ethyl acetate, 30% IPA:70% water, 30% ethanol:70% water; 72 hours and 1 week; in acetonitrile the solvate formed
Description: In a competitive slurry experiment, approximately 1:1 mixtures of Form A and Form C were prepared. The mixtures were then stirred with a seed of Form B (about 5% by weight of the mixture of Form A and Form C). The produced systems were matured at 5° C., 25° C. and 50° C. under stirring in acetonitrile, ethyl acetate, 30% IPA:70% water and 30% ethanol:70% water. The systems were analyzed by XRPD at two different time points: 72 hours and 1 week.
Form D was observed by maturation in acetonitrile. This experiment confirmed Form A as the stable form, compared to Form B and Form C, under the conditions investigated. The presence of acetonitrile led to solvate formation at all of the temperatures investigated.

[5] = Polymorphism studies (cooling, slow evaporation, maturation; XRPD); details: 8 days maturation RT/50° C., solids analysed by XRPD
Description: Samples found as clear solutions at −20° C. were placed for slow evaporation at RT using a 25-gauge syringe needle(s) in the septum of the vial. • The solid suspensions observed in 100 volumes of the relative solvent systems at the end of the solubility assessment were placed for 8 days maturation cycling between RT and 50° C. (cycling 4 hours at RT; 4 hours at 50° C.). After the maturation, the solids were recovered and the supernatants were placed for slow evaporation. All the solids obtained by these processes were analyzed by XRPD.

With `O=C(/C=C\n1cnc(-c2cc(C(F)(F)F)cc(C(F)(F)F)c2)n1)NNc1cnccn1` [Lot No. 1405463] the d10 ([1]; listed as 1405463) was 12.062 μm, the d50 ([1]; listed as 1405463) was 27.653 μm and the d90 ([1]; listed as 1405463) was 64.876 μm. For the same compound, the “D[4,3] Volume weighted mean” value ([1]; listed as 1405463) was 33.740.

`O=C(/C=C\n1cnc(-c2cc(C(F)(F)F)cc(C(F)(F)F)c2)n1)NNc1cnccn1` [Lot No. 1341-AK-109-2] gave a d10 ([1]; listed as 1341-AK-109-2) of 2.815 μm, a d50 ([1]; listed as 1341-AK-109-2) of 10.423 μm and a d90 ([1]; listed as 1341-AK-109-2) of 89.782 μm. The “D[4,3] Volume weighted mean” value ([1]; listed as 1341-AK-109-2) was 32.779 and the “Characteristic of the particle size distribution” value (“Characteristic” for short) ([1]; listed as 1341-AK-109-2) was “distinctly bimodal”.

For `O=C(/C=C\n1cnc(-c2cc(C(F)(F)F)cc(C(F)(F)F)c2)n1)NNc1cnccn1` [Lot No. 1339-BS-142-1], the d10 ([1]; listed as 1339-BS-142-1) was 4.978 μm, the d50 ([1]; listed as 1339-BS-142-1) was 11.969 μm and the d90 ([1]; listed as 1339-BS-142-1) was 28.331 μm. For the same compound, the “D[4,3] Volume weighted mean” value ([1]; listed as 1339-BS-142-1) was 16.614 and the “Characteristic” value ([1]; listed as 1339-BS-142-1) was “more a unimodal characteristic”.

`O=C(/C=C\n1cnc(-c2cc(C(F)(F)F)cc(C(F)(F)F)c2)n1)NNc1cnccn1` [Lot No. PC-14-008] gave a d10 ([1]; listed as PC-14-008) of 7.658 μm, a d50 ([1]; listed as PC-14-008) of 18.290 μm and a d90 ([1]; listed as PC-14-008) of 42.616 μm. The “D[4,3] Volume weighted mean” value ([1]; listed as PC-14-008) was 22.451 and the “Characteristic” value ([1]; listed as PC-14-008) was “more a unimodal characteristic”.

With `O=C(/C=C\n1cnc(-c2cc(C(F)(F)F)cc(C(F)(F)F)c2)n1)NNc1cnccn1` [Lot No. PC-14-005] the Minor tertiary mode [1] was “approximately 400 μm”, the d10 ([1]; listed as PC-14-005) was 6.363 μm and the d50 ([1]; listed as PC-14-005) was 18.345 μm. The d90 ([1]; listed as PC-14-005) was 86.906 μm and the “D[4,3] Volume weighted mean” value ([1]; listed as PC-14-005) was 36.720.

With `O=C(/C=C\n1cnc(-c2cc(C(F)(F)F)cc(C(F)(F)F)c2)n1)NNc1cnccn1` [Selinexor, (Z)-3-(3-(3,5-bis(trifluoromethyl)phenyl)-1H-1,2,4-triazol-1-yl)-N′-(pyrazin-2-yl)acrylohydrazide] the Solubility ([2]; 20% MeCN:80% Water, volumes of solvent) was “Not dissolved in 100 v”, the Solubility ([2]; 40% MeCN:60% Water, volumes of solvent) was “Not dissolved in 100 v” and the Solubility ([2]; 60% MeCN:40% Water, volumes of solvent) was “Dissolved in 50 v”. The Solubility ([2]; 80% MeCN:20% Water, volumes of solvent) was “Dissolved in 30 v”, the Solubility ([2]; 90% MeCN:10% Water, volumes of solvent) was “Dissolved in 30 v” and the Solubility ([2]; Acetonitrile, volumes of solvent (1 volume in μL = sample mg), assessed at 50° C. and RT) was “Dissolved in 70 v”. The “Solubility (visual)” value ([2]; IPA:water mixtures having up to 60% water) was “soluble”, the “Solubility (visual)” value ([2]; acetonitrile:water mixtures having up to 40% water) was “soluble” and the “Solubility (visual)” value ([2]; heptane, 1,2-dichloroethane, toluene, cumene, diisopropylether, water and isooctane, 5 to 100 volumes) was “not soluble”. For the same compound, the “Share of the solvent systems investigated in which soluble” value ([2]; thirty solvents and solvent mixtures, 50° C./RT) was “about 60 % of the solvent systems investigated”.

In the case of `O=C(/C=C\n1cnc(-c2cc(C(F)(F)F)cc(C(F)(F)F)c2)n1)NNc1cnccn1` [Form A], the Physico-chemical stability ([3]; exposed for 4 weeks to 25° C./97% relative humidity (RH)) is reported as “stable”, the Physico-chemical stability ([3]; exposed for 4 weeks to 40° C./75% RH) is reported as “stable” and the “Relative stability of forms in competitive slurry” value [4] is reported as “stable anhydrous form”. For the same compound, the “Stability of the form under solvent-based experimentation” value [5] was “stable in most of the conditions investigated”.

`O=C(/C=C\n1cnc(-c2cc(C(F)(F)F)cc(C(F)(F)F)c2)n1)NNc1cnccn1` [Lot No. 1305365] gave a d10 ([1]; listed as 1305365) of 4.905 μm, a d50 ([1]; listed as 1305365) of 14.268 μm and a d90 ([1]; listed as 1305365) of 75.098 μm. For the same compound, the “D[4,3] Volume weighted mean” value ([1]; listed as 1305365) was 34.740.

In the case of `O=C(/C=C\n1cnc(-c2cc(C(F)(F)F)cc(C(F)(F)F)c2)n1)NNc1cnccn1` [Lot No. PC-14-009], the d10 ([1]; listed as PC-14-009) is reported as 9.665 μm, the d50 ([1]; listed as PC-14-009) is reported as 24.406 μm and the d90 ([1]; listed as PC-14-009) is reported as 68.445 μm. For the same compound, the “D[4,3] Volume weighted mean” value ([1]; listed as PC-14-009) was 32.557 and the “Characteristic” value ([1]; listed as PC-14-009) was “more a unimodal characteristic”.

Compound `O=C(/C=C\n1cnc(-c2cc(C(F)(F)F)cc(C(F)(F)F)c2)n1)NNc1cnccn1` [Lot No. 1339-BS-142-2] has a d10 ([1]; listed as 1339-BS-142-2) of 6.088 μm, a d50 ([1]; listed as 1339-BS-142-2) of 14.468 μm and a d90 ([1]; listed as 1339-BS-142-2) of 33.936 μm. The “D[4,3] Volume weighted mean” value ([1]; listed as 1339-BS-142-2) was 20.889 and the “Characteristic” value ([1]; listed as 1339-BS-142-2) was “more a unimodal characteristic”.
